From patent US20180028594A1, “[…] OPIOID RECEPTOR AGONISTS FOR HARD TISSUE PAIN” (Cara Therapeutics, Inc., priority 2014, published 2018)

Experiments:
tactile allodynia = assay: L5/6 Spinal Nerve Ligation (Chung Model) of neuropathic pain; assay type: in vivo, Rat
Protocol: FIG. 1: Efficacy of CR845 in “Chung Model” of neuropathic pain is blocked with Peripheral (Intrapaw) administration of a kappa antagonist (norBNI) in rats. *** denotes p<0.001. compared to vehicle-treated controls (two-way ANOVA). Vehicle or Nor-BNI was administered intraplantarly (0.2 mg) 15 min prior to CR845. Injection (1 mg/kg). N=6 male rats/group, mean±SEM.
The peripheral mechanism of action of CR845 is supported preclinically by both biochemical in vitro assays and in vivo functional pharmacological studies. […] Moreover, in standard preclinical pain models, such as the “Chung Model” of neuropathic pain, the analgesic action of CR845 was blocked with kappa opioid receptor antagonists administered directly to the local site of injury, indicating a peripheral site of action for CR845 (FIG. 1). In the “Chung Model”, neuropathic pain is induced experimentally by ligating spinal nerves mediating sensation for a hind limb. […] Sets of different thickness filaments are used to test sensitivity, each of which is designed to produce a given force (in grams) upon bending after contact. By testing with these filaments, the minimum force to evoke a withdrawal response defines the paw withdrawal threshold. The nerve injury produces a marked reduction in paw withdrawal thresholds (increased sensitivity to force) in response to probing with the filaments.

[1] = test system: pro-inflammatory mediators; assay: Production and release of pro-inflammatory mediators
[2] = test system: Somatic and visceral pain; assay: Acetic Acid Writhing, somato-visceral inflammatory pain model; assay type: in vivo; settings: Mouse
Protocol: (§1) In standard preclinical pain models, CR845 successfully attenuated acute and chronic visceral, inflammatory and neuropathic pain in a dose-dependent manner (see Table 1, below). The analgesic effect of CR845 was recordable within 15 minutes post-administration and lasted for up to 18 hours following single-dose administration.

[3] = test system: postoperative pain (soft tissue surgery); settings: human, in vivo
mechanical hyperalgesia [4] = assay: Carrageenan, acute inflammatory pain model; assay type: in vivo; settings: Rat
Protocol: as §1

[5] = test system: postoperative pain (hard tissue surgery); settings: human, in vivo
[6] = Phase 1 clinical trials, safety and sedation (Ramsey Sedation Scale); assay type: in vivo, human
Source text: The most common TEAEs across evaluated populations were transient facial tingling or numbness, dizziness, fatigue and a transient increase in urine output in the absence of electrolyte loss, or aquaresis. […] No other changes in vital signs, including supine pulse rate, blood pressure, respiratory rate, oral body temperature, or oxygen saturation were reported, nor were any clinically significant changes observed in electrocardiogram characteristics. Additionally, the CNS adverse events characteristic of prior-generation CNS-active kappa agonists, such as acute psychiatric side effects, were not observed with CR845. The potential to cause sedation was assessed using the Ramsey Sedation Scale in the ascending dose-tolerance Phase 1 trial (Study 2048-001) of I.V. CR845, which included 54 subjects (17 on placebo; 37 on CR845).

[7] = Pharmacokinetic studies, drug in extracted brain tissue; assay type: in vivo; settings: animals, analgesic and supra-analgesic doses
[8] = test system: acute and chronic visceral, inflammatory and neuropathic pain; assay: Standard preclinical pain models, onset and duration of analgesic effect; assay type: in vivo
Protocol: as §1

mechanical hyperalgesia [9] = assay: Complete Freund's Adjuvant, chronic inflammatory pain model; assay type: in vivo; settings: Rat
Protocol: as §1

CC(C)C[C@@H](NC(=O)[C@@H](Cc1ccccc1)NC(=O)[C@H](N)Cc1ccccc1)C(=O)N[C@H](CCCCN)C(=O)N1CCC(N)(C(=O)O)CC1 [CR845, D-Phe-D-Phe-D-Leu-D-Lys-[ω(4-aminopiperidine-4-carboxylic acid)]—OH]
ED50 (I.V., mg/kg) (tactile allodynia; Rat, I.V., L5/6 Spinal Nerve Ligation, tactile allodynia): 0.3 mg/kg
Duration of Action (tactile allodynia; Rat, L5/6 Spinal Nerve Ligation): >8 h
Paw withdrawal threshold (tactile allodynia; rats, I.V. CR845 1 mg/kg, Chung Model): increase in the withdrawal threshold
Production and release of pro-inflammatory mediators [1]: decreased the production and release of pro-inflammatory mediators
Duration of Action [2]: >18 h
ED50 (I.V., mg/kg) ([2]; I.V.): 0.07 mg/kg
Greater reduction in pain intensity (PID) at 24 hours compared to Placebo/Placebo [3]: approximately 60%
Improvement in mean SPID values 0-4 hour compared to Placebo/Placebo [3]: 3.5 fold
Incidence of nausea, patients [3]: 26.1%
Incidence of vomiting, patients [3]: 1.7%
Mean TOTPAR0-2, pain relief within first 2 hours compared to Placebo/Placebo [3]: statistically superior pain relief
Percentage of patients characterized as Responders (global evaluation of study medication) compared to placebo [3]: higher percentage
Pruritus reported compared to placebo [3]: less pruritus
Reduction of incidence of nausea versus placebo [3]: approximately 50%
Reduction of incidence of vomiting versus placebo [3]: ~80%
SPID over 0-8, 0-12 and 0-16 time periods compared to Placebo/Placebo [3]: reduced pain intensity
Blood sodium increase (hypernatremia), of total patients ([3]; iv, 0.04 mg/kg): 14%
Duration of Action (mechanical hyperalgesia [4]): >1 h
ED50 (I.V., mg/kg) (mechanical hyperalgesia [4]; I.V., mechanical hyperalgesia): 0.3 mg/kg
Acute psychiatric side effects [5]: no evidence of acute psychiatric side effects
Mean PID from baseline relative to placebo across 48 hour trial period [5]: numerically superior
Most frequent TEAEs (greater than 10%) [5]: transient facial tingling and somnolence
Reduction of incidence of nausea compared to placebo [5]: 60%
Reduction of incidence of vomiting compared to placebo [5]: 80%
SPID scores 0-24, 0-36, 0-48 compared to placebo [5]: Numerical improvements
Rise of mean plasma sodium concentration from baseline ([5]; iv, 0.005 mg/kg): approximately 3%
SPID0-24 compared to placebo ([5]; iv, 0.005 mg/kg): statistically significant reduction in pain intensity
SPID0-36 compared to placebo ([5]; iv, 0.005 mg/kg): statistically significant
SPID0-48 compared to placebo ([5]; iv, 0.005 mg/kg): statistically significant
Sedation, Ramsey Sedation Scale ([6]; ascending dose-tolerance Phase 1 trial (Study 2048-001), I.V., healthy subjects): did not cause sedation
Tolerability ([6]; four Phase 1 clinical trials): generally well tolerated
Concentration of drug in extracted brain tissue [7]: no measurable concentrations
Time at which analgesic effect was recordable post-administration [8]: ≤ 15 min
Duration of analgesic effect following single-dose administration ([8]; single dose): up to 18 hours
Duration of Action (mechanical hyperalgesia [9]): >2 h
ED50 (I.V., mg/kg) (mechanical hyperalgesia [9]; I.V., mechanical hyperalgesia): 0.08 mg/kg

Oc1ccc2c3c1O[C@H]1c4[nH]c5c(c4C[C@@]4(O)[C@@H](C2)N(CC2CC2)CC[C@]314)C[C@@]1(O)[C@H]2Cc3ccc(O)c4c3[C@@]1(CCN2CC1CC1)[C@H]5O4 [nor-BNI, nor-binaltorphamine, reference compound]
Effect of kappa antagonist on efficacy of CR845 (tactile allodynia; rats, 0.2 mg intraplantar into injured paw 15 min prior to CR845 1 mg/kg): significantly reduces the effect of CR845
